The results in this text go back to ChEMBL document CHEMBL1201862, “PubChem BioAssay data set” (2004).

Test systems include BT-549; DMS-114; M19-MEL; DLD-1; DMS-273; LXFL 529; HOP-18; XF498.
Common to all, as to test: NCI-60 cell line screen, 48 h

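These data come from cells grown in 96-well plates and exposed to compound for 48 hours at five concentrations. GI50 marks 50% less growth.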 Calls of active or inactive are those of the source. Cut-off read from the data, not from the text of the source: active = GI50 up to about 1.1 µM and inactive = higher.

As for `CC(C)(C)c1cc(-c2ccc(-c3cc(C(C)(C)C)c(O)c(C(C)(C)C)c3)cc2)cc(C(C)(C)C)c1O`, the GI50 in the assay on BT-549 was > 100 µM (inactive). For `O=C(/C=C/c1ccccc1O)c1ccccc1O`, the GI50 with DMS-114 is 16.7 µM (inactive); with M19-MEL it was > 100 µM (inactive); with DLD-1, > 100 µM (inactive); in the assay with DMS-273 it was > 100 µM (inactive). Consider `CCCCCCCCCCCCCC(=O)OCC1OC(n2cc(F)c(=O)[nH]c2=O)C(N)C(OC(=O)CCCCCCCCCCCCC)C1O` (configuration not stated), for which the GI50 with DMS-114, with M19-MEL, in the assay on LXFL 529 and in the assay on DMS-273 was > 100 µM (inactive) each time.

For the molecule `c1n[nH]cc1C12C3C4C5C3C1C5C42` (configuration not stated), the GI50 with BT-549 was > 100 µM (inactive). Still for that read-out and setting: with `O=C(O)c1nc2nc(Cl)c(Cl)nc2[nH]1` the figure was > 100 µM (inactive); with `CC1=CC[C@@H]2[C@@H](CC[C@@]2(C)O)C(C)(C)[C@H]1CC[C@@H]1[C@@]2(C)CC[C@@H](O)C(C)(C)O[C@@H]2CC[C@]1(C)O`, 18.4 µM (inactive). With `CCOC(=O)C(=Cc1ccccc1Cl)C(=O)OCC`, the GI50 with BT-549 was 1.62 µM (inactive). On the same count and under the same terms, with `NCCC(N)C(=O)O` (configuration not stated) the figure was > 100 µM (inactive); with `Cc1ccc(NC(c2ccccc2)P(=O)(c2ccccc2)c2ccccc2)cc1` (configuration not stated), > 100 µM (inactive); with `CNC(=S)NNc1ncnc2c1c(-c1ccc(Cl)cc1)cn2-c1ccc(C)cc1`, 14.2 µM (inactive). For the molecule `Oc1ccccc1-c1cnnc(-c2ccccc2O)c1`, the GI50 is 15 µM (inactive) in the assay on DMS-114; 27.4 µM (inactive) in the assay on M19-MEL; 21.5 µM (inactive) in the assay on LXFL 529; 22.1 µM (inactive) in the assay with HOP-18; 16.2 µM (inactive) in the assay with XF498; 30.6 µM (inactive) in the assay with DLD-1. Take `CC1(C)N=[N+]([O-])C1(C)C`: the GI50 in the assay with BT-549 is > 100 µM (inactive). As to `COc1cccc(NC(=O)c2c(N)n[nH]c2SC)c1`, in the assay with BT-549, the GI50 was > 100 µM (inactive). On the same count and under the same terms, to `CC1CC[C@@]2(OC1)OC1C[C@H]3[C@@H]4CCC5CC(O)CC[C@]5(C)[C@H]4C/C(=N\N(C)C)[C@]3(C)C1[C@@H]2C` (some centres not stated) belongs 29.4 µM (inactive).

`O=C(O)CCCSC(=O)Nc1ccc(/N=N/c2ccccc2)cc1`: the GI50 in the assay on DMS-114, in the assay on LXFL 529 and with DMS-273 was > 100 µM (inactive) in each case. Consider `Cc1cc(Cl)cc2c1NC(=O)C2(O)CC(=O)c1ccc(F)cc1` (configuration not stated), for which the GI50 in the assay with M19-MEL is 5.41 µM (inactive); in the assay with HOP-18, 11.3 µM (inactive); with XF498 it was 32.1 µM (inactive); with DLD-1, 96.8 µM (inactive); with DMS-273, 77.3 µM (inactive). As for `CC(C)=Nn1cnc(C(=N)C#N)c1N`, in the assay on BT-549, the GI50 was > 100 µM (inactive). As for `Cc1cc(-c2ccccc2)cc2[n+]1CC=C2.[O-][Cl+3]([O-])([O-])[O-]`, the GI50 with DMS-114 is 77.4 µM (inactive); with M19-MEL it was > 100 µM (inactive); with LXFL 529 it was 58.3 µM (inactive); in the assay with HOP-18, < 0.01 µM (active); in the assay with DLD-1, 58.5 µM (inactive); in the assay on DMS-273, 46.7 µM (inactive). On to `CC(=O)O[C@H]1C(=O)[C@@]2(C)C(C(OC(=O)c3ccccc3)C3[C@@H](O)C(OC(=O)[C@@H](O)[C@H](NC(=O)c4ccccc4)c4ccc(C(F)(F)F)cc4)C(C)=C1C3(C)C)[C@]1(OC(C)=O)CO[C@@H]1C[C@@H]2O` (some centres not stated), for which the GI50 with DMS-114 is 11.3 µM (inactive); in the assay with M19-MEL, > 25 µM (inactive); with LXFL 529, 15.2 µM (inactive); in the assay on DLD-1, > 25 µM (inactive); in the assay with DMS-273, 11.7 µM (inactive). Regarding `CCCCCCCC(CC(=O)NC(CO)C(=O)NC(CO)CC(C)C)OC(=O)CC(CCCCCCC)OC(=O)CC(CCCCCCC)OC1OC(C)C(O)C(OC2OC(C)C(O)C(O)C2OC(C)=O)C1O` (configuration not stated), the GI50 in the assay with BT-549 was 12.5 µM (inactive). On the same count and under the same terms, to `CN1C(=O)C(/C=N/NC(=O)c2cccnc2)C(N)N(C)C1=O` (configuration not stated) belongs > 100 µM (inactive); to `O=C(OC1CN2CCC1CC2)N(c1ccccc1)c1ccccc1` (configuration not stated), > 100 µM (inactive).

With `O=C(c1ccc([N+](=O)[O-])cc1)C(Br)C(Br)c1ccnc2ccccc12` (configuration not stated), in the assay on BT-549, the GI50 is 7.59 µM (inactive).

Regarding `CC(C)(C)OC(=O)n1c(-c2ccccc2F)cc(=O)c2cc3c(cc21)OCO3`, the GI50 in the assay with BT-549 was 19.8 µM (inactive).

In the case of `C[C@@H](c1ccccc1)n1c(N)c(C#N)c2ccc([N+](=O)[O-])cc2c1=O`, in the assay on BT-549, the GI50 is 1.69 µM (inactive).

Consider `O=C1CCC(Cc2ccc(Cl)cc2Cl)C(=O)N1` (configuration not stated), for which the GI50 with BT-549 is 28.6 µM (inactive).

Turning to `C=CC(C)(O)CCC1C(=C)C(O)CC2C(C)(C)CCCC12C` (configuration not stated), the GI50 with BT-549 was 18 µM (inactive). The same measure, in the same setting: with `Cc1ccc(NC(S)=Nc2c(C)n(C)n(-c3ccccc3)c2=O)cc1` the figure was > 100 µM (inactive); with `CC(=O)c1sc(Nc2ccc(Cl)c(Cl)c2)nc1C`, > 100 µM (inactive). For the molecule `O=C(/C=C/c1ccccc1Cl)c1cccc2ccccc12`, the GI50 in the assay with DMS-114 was 4.46 µM (inactive); in the assay with M19-MEL, 11 µM (inactive); with LXFL 529 it was 3.06 µM (inactive); in the assay on HOP-18, 16.1 µM (inactive); in the assay with DLD-1 it was 8.51 µM (inactive); with DMS-273, 13.4 µM (inactive). With `NCS(=O)(=O)O`, the GI50 in the assay on BT-549 was > 100 µM (inactive). Same read-out and setting: with `CN(C)CCNC1=CC(=O)c2c(O)ccc(O)c2C1=O` the figure was 14.6 µM (inactive); with `Cc1sc(NC=C2C(=O)CC(C)(C)CC2=O)nc1-c1ccccc1`, > 100 µM (inactive); with `NS(=O)(=O)c1ccc(N=C2C(=O)Nc3ccccc32)cc1`, > 100 µM (inactive).

For the molecule `N#CC(NNC(=O)Cc1ccccc1)c1ccccc1O` (configuration not stated), the GI50 with BT-549 is 21 µM (inactive); in the assay with M19-MEL it was 7.96 µM (inactive); in the assay on LXFL 529 it was 15.2 µM (inactive); with HOP-18, 13.2 µM (inactive); with DLD-1, 47 µM (inactive); in the assay on DMS-273 it was 6.59 µM (inactive).

`CC(C)O/N=C/c1cc(NC(=S)OC(C)C)ccc1Cl`: the GI50 in the assay on BT-549 is 55.5 µM (inactive). With `COC(=O)c1ccc(C)cc1CC1Cc2cccc(C)c2C1=O` (configuration not stated), the GI50 with BT-549 was 9.77 µM (inactive). For `CNC(=S)/C(=N\Nc1[nH]cnc1C(N)=O)C(N)=S`, the GI50 in the assay on BT-549 is 29.9 µM (inactive). On the same count and under the same terms, with `CN(C)Cc1cc(/N=N/c2ccc(Cl)c(Cl)c2)ccc1O` the figure was 13.8 µM (inactive); with `COC(=O)CCC(C)C1CCC2C3C(C[C@H](OC(C)=O)[C@]12C)[C@@]1(C)CCC2(C[C@H]1C[C@H]3OC(C)=O)OOC1(CC[C@]3(C)C4C[C@H](OC(C)=O)[C@]5(C)C(C(C)CCC(=O)OC)CCC5C4[C@H](OC(C)=O)C[C@@H]3C1)OO2` (some centres not stated), 97.3 µM (inactive). On the same count and under the same terms, with `Cc1nc2c(Br)cc(Br)cc2c(=O)n1-c1ccccc1NC1OC(CO)C(O)C(O)C1O` (configuration not stated) the figure was > 100 µM (inactive); with `CSC(=S)NN=C1CCCCC1`, 45.2 µM (inactive). Turning to `CCOC(=O)C1=C(C)NC(=O)NC1c1ccc(N(CCCl)CCCl)cc1Cl` (configuration not stated), in the assay on BT-549, the GI50 is 15.5 µM (inactive). For `COc1ccccc1C(O)[C@@H]1C[C@@H]2[C@H]3CC[C@@](C)([C@@H]2O1)C3(C)C` (some centres not stated), the GI50 in the assay on BT-549 is 18.1 µM (inactive). For the molecule `CCOc1ccc2c(c1)NC(=O)C(C1OC(c3ccccc3)=CC1=O)S2` (configuration not stated), the GI50 with BT-549 was 32.1 µM (inactive).

In the case of `CCOC(=O)NC(Nc1ccc(S(=O)(=O)Nc2ncccn2)cc1)(C(=O)OCC)C(F)(F)F` (configuration not stated), in the assay with BT-549, the GI50 was > 100 µM (inactive).
